Values quoted from earlier work in US20110165150A1, “Isolated organ perfusion combination therapy of cancer” (Merck Patent GmbH, priority 2006, published 2011).

System: integrin receptors αvβ3, αvβ1, αvβ6, αvβ8, αIIbβ3
Conditions: especially αvβ3 and/or αvβ5

CC(C)[C@H]1C(=O)N[C@@H](CCCN=C(N)N)C(=O)NCC(=O)N[C@@H](CC(=O)O)C(=O)N[C@H](Cc2ccccc2)C(=O)N1C [Cilengitide, cyclo-(Arg-Gly-Asp-DPhe-NMeVal)]
blocking the integrin receptors: efficacious in blocking
